System: 997537-175-T-J1-PDC complex spheroid viability
Experiment: Anticancer human tumor 997537-175-T-J1-PDC patient-derived colon adenocarcinoma cell line growth inhibition [GQUAD]
Details: for IC50: curve of first compound; for viability, T/C: stronger effect = lower value
In short: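 Multi-cell-type spheroids of tumor cells with HUVEC and mesenchymal stem cells, treated with drug combinations. Concentrations descend in half-log steps from near clinical Cmax, or from 10 microM where Cmax is unknown; viability read-out.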

[1] = second compound 0.0316 µM, first compound 0.0316 µM
[2] = second compound 0.0316 µM, first compound 0.1 µM
[3] = second compound 0.0316 µM, first compound 0.316 µM
[4] = second compound 0.0316 µM, first compound 1 µM
[5] = second compound 0.0316 µM, first compound 3.16 µM
[6] = second compound 0.0316 µM, first compound 10 µM
[7] = second compound 0.1 µM, first compound 0.0316 µM
[8] = second compound 0.1 µM, first compound 0.1 µM
[9] = second compound 0.1 µM, first compound 0.316 µM
[10] = second compound 0.1 µM, first compound 1 µM
[11] = second compound 0.1 µM, first compound 3.16 µM
[12] = second compound 0.1 µM, first compound 10 µM
[13] = second compound 0.316 µM, first compound 0.0316 µM
[14] = second compound 0.316 µM, first compound 0.1 µM
[15] = second compound 0.316 µM, first compound 0.316 µM
[16] = second compound 0.316 µM, first compound 1 µM
[17] = second compound 0.316 µM, first compound 3.16 µM
[18] = second compound 0.316 µM, first compound 10 µM
[19] = second compound 1 µM, first compound 0.0316 µM
[20] = second compound 1 µM, first compound 0.1 µM
[21] = second compound 1 µM, first compound 0.316 µM
[22] = second compound 1 µM, first compound 1 µM
[23] = second compound 1 µM, first compound 3.16 µM
[24] = second compound 1 µM, first compound 10 µM
[25] = second compound 3.16 µM, first compound 0.0316 µM
[26] = second compound 3.16 µM, first compound 0.1 µM
[27] = second compound 3.16 µM, first compound 0.316 µM
[28] = second compound 3.16 µM, first compound 1 µM
[29] = second compound 3.16 µM, first compound 3.16 µM
[30] = second compound 3.16 µM, first compound 10 µM
[31] = second compound 10 µM, first compound 0.0316 µM
[32] = second compound 10 µM, first compound 0.1 µM
[33] = second compound 10 µM, first compound 0.316 µM
[34] = second compound 10 µM, first compound 1 µM
[35] = second compound 10 µM, first compound 3.16 µM
[36] = second compound 10 µM, first compound 10 µM
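Also: spheroids exposed to the agents for 7 days.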
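For viability, T/C in this document: 100% = DMSO vehicle control viability.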

## C=CC(=O)N1CCN(c2nc(=O)n(-c3c(C)ccnc3C(C)C)c3nc(-c4c(O)cccc4F)c(F)cc23)C(C)C1 (stereo unspecified) + Cc1cnc(CNC(=O)c2c(=O)c3ccc(N4CCCN(C)CC4)nc3n3c2sc2ccccc23)cn1
Second compound 0.0316 µM
  IC50: > 10 µM
Second compound 0.1 µM
  IC50: > 10 µM
Second compound 0.316 µM
  IC50: > 10 µM
Second compound 1 µM
  IC50: > 10 µM
Second compound 3.16 µM
  IC50: > 10 µM
Second compound 10 µM
  IC50: > 10 µM
[1]
  viability, T/C: 102%
[2]
  viability, T/C: 90.1%
[3]
  viability, T/C: 93.8%
[4]
  viability, T/C: 71.5%
[5]
  viability, T/C: 77%
[6]
  viability, T/C: 87.7%
[7]
  viability, T/C: 98.8%
[8]
  viability, T/C: 77.7%
[9]
  viability, T/C: 87.5%
[10]
  viability, T/C: 64.5%
[11]
  viability, T/C: 102%
[12]
  viability, T/C: 91.4%
[13]
  viability, T/C: 84.7%
[14]
  viability, T/C: 85%
[15]
  viability, T/C: 85.4%
[16]
  viability, T/C: 94.9%
[17]
  viability, T/C: 89.4%
[18]
  viability, T/C: 90.4%
[19]
  viability, T/C: 93.7%
[20]
  viability, T/C: 100%
[21]
  viability, T/C: 99%
[22]
  viability, T/C: 95%
[23]
  viability, T/C: 102%
[24]
  viability, T/C: 99.2%
[25]
  viability, T/C: 68.9%
[26]
  viability, T/C: 115%
[27]
  viability, T/C: 96.5%
[28]
  viability, T/C: 102%
[29]
  viability, T/C: 103%
[30]
  viability, T/C: 94.4%
[31]
  viability, T/C: 84.1%
[32]
  viability, T/C: 83.5%
[33]
  viability, T/C: 114%
[34]
  viability, T/C: 87.7%
[35]
  viability, T/C: 95.3%
[36]
  viability, T/C: 118%

## CC(C)n1c(=O)n(C)c2cnc3cc(F)c(-c4ccc(OCCCN5CCCCC5)nc4)cc3c21 + Cc1cnc(CNC(=O)c2c(=O)c3ccc(N4CCCN(C)CC4)nc3n3c2sc2ccccc23)cn1
Second compound 0.0316 µM
  IC50: > 10 µM
Second compound 0.1 µM
  IC50: > 10 µM
Second compound 0.316 µM
  IC50: > 10 µM
Second compound 1 µM
  IC50: > 10 µM
Second compound 3.16 µM
  IC50: > 10 µM
Second compound 10 µM
  IC50: > 10 µM
[1]
  viability, T/C: 112%
[2]
  viability, T/C: 91.3%
[3]
  viability, T/C: 104%
[4]
  viability, T/C: 82.3%
[5]
  viability, T/C: 91.9%
[6]
  viability, T/C: 92.5%
[7]
  viability, T/C: 95%
[8]
  viability, T/C: 95.9%
[9]
  viability, T/C: 91.5%
[10]
  viability, T/C: 82.4%
[11]
  viability, T/C: 82.6%
[12]
  viability, T/C: 90.9%
[13]
  viability, T/C: 101%
[14]
  viability, T/C: 74%
[15]
  viability, T/C: 101%
[16]
  viability, T/C: 84.8%
[17]
  viability, T/C: 108%
[18]
  viability, T/C: 93.3%
[19]
  viability, T/C: 95.6%
[20]
  viability, T/C: 113%
[21]
  viability, T/C: 111%
[22]
  viability, T/C: 80%
[23]
  viability, T/C: 114%
[24]
  viability, T/C: 105%
[25]
  viability, T/C: 87%
[26]
  viability, T/C: 104%
[27]
  viability, T/C: 108%
[28]
  viability, T/C: 105%
[29]
  viability, T/C: 122%
[30]
  viability, T/C: 110%
[31]
  viability, T/C: 87.8%
[32]
  viability, T/C: 93.4%
[33]
  viability, T/C: 106%
[34]
  viability, T/C: 116%
[35]
  viability, T/C: 98.5%
[36]
  viability, T/C: 107%

## CC1COCCN1c1cc(C2(O)CC3CCC(C2)O3)c2cnn(-c3ccn[nH]3)c2n1 (stereo unspecified) + Cc1cnc(CNC(=O)c2c(=O)c3ccc(N4CCCN(C)CC4)nc3n3c2sc2ccccc23)cn1
Second compound 0.0316 µM
  IC50: 0.0848 µM
Second compound 0.1 µM
  IC50: < 0.0316 µM
Second compound 0.316 µM
  IC50: 0.081 µM
Second compound 1 µM
  IC50: < 0.0316 µM
Second compound 3.16 µM
  IC50: > 10 µM
Second compound 10 µM
  IC50: 3.61 µM
[1]
  viability, T/C: 64%
[2]
  viability, T/C: 52.9%
[3]
  viability, T/C: 33.3%
[4]
  viability, T/C: 38.8%
[5]
  viability, T/C: 42.9%
[6]
  viability, T/C: 44.8%
[7]
  viability, T/C: 51.1%
[8]
  viability, T/C: 49%
[9]
  viability, T/C: 37.5%
[10]
  viability, T/C: 27.6%
[11]
  viability, T/C: 41.2%
[12]
  viability, T/C: 58.5%
[13]
  viability, T/C: 53%
[14]
  viability, T/C: 52.3%
[15]
  viability, T/C: 35.7%
[16]
  viability, T/C: 57.1%
[17]
  viability, T/C: 43%
[18]
  viability, T/C: 43.4%
[19]
  viability, T/C: 47.9%
[20]
  viability, T/C: 42.6%
[21]
  viability, T/C: 38.4%
[22]
  viability, T/C: 42.9%
[23]
  viability, T/C: 62.7%
[24]
  viability, T/C: 28.6%
[25]
  viability, T/C: 48.6%
[26]
  viability, T/C: 56.9%
[27]
  viability, T/C: 62.7%
[28]
  viability, T/C: 41.8%
[29]
  viability, T/C: 54.2%
[30]
  viability, T/C: 53%
[31]
  viability, T/C: 59.5%
[32]
  viability, T/C: 63.1%
[33]
  viability, T/C: 55.8%
[34]
  viability, T/C: 53.9%
[35]
  viability, T/C: 53.1%
[36]
  viability, T/C: 42.4%
